Experimental data reported in publication PMC8578332 (Scientific Reports, 2021).
Where a SMILES comes first, the peptide text is derived from it. Bridges are numbered along the chain shown (N, C = ends).

Each compound was assayed against human α7-containing nAChRs (Homo sapiens, UniProt P36544) (assay: cell-based). Details: not given.
Sequence of human α7-containing nAChRs (P36544 23-502 limits assumed): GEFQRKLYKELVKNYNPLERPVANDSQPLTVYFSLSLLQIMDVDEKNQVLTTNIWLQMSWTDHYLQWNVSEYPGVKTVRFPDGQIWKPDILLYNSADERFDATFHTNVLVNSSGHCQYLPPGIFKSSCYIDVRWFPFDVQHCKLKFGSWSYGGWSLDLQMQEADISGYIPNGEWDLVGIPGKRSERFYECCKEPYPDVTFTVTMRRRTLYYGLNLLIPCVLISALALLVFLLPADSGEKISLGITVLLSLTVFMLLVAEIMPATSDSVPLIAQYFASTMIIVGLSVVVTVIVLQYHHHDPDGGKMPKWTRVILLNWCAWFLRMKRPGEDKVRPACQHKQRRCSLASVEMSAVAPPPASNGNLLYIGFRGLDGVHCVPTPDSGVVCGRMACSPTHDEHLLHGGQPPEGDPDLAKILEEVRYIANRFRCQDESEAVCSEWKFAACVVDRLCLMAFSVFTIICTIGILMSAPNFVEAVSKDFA
Assay type: cell-based
In the case of CC(C)[C@H](NC(=O)[C@@H]1CSSC[C@H](NC(=O)[C@@H](N)CO)C(=O)N[C@H]2CSSC[C@H](NC(=O)[C@H](C)NC(=O)[C@H](C)NC(=O)[C@H](CC(N)=O)NC(=O)[C@H](CCCNC(=N)N)NC(=O)[C@H](C)NC2=O)C(=O)N[C@@H](CCCNC(=N)N)C(=O)N[C@@H](Cc2c[nH]cn2)C(=O)N[C@@H](CC(N)=O)C(=O)N[C@@H](Cc2c[nH]cn2)C(=O)N2CCC[C@H]2C(=O)N1)C(N)=O [rAusIA [P7A]] (H-SCCARNAACRHNHPCV-NH2; disulfide 2-15, 3-9), the IC50 is reported as > 100 µM.
In the case of CC(C)[C@H](NC(=O)[C@@H]1CSSC[C@H](NC(=O)[C@@H](N)CO)C(=O)N[C@H]2CSSC[C@H](NC(=O)[C@H](C)NC(=O)[C@@H]3CCCN3C(=O)[C@H](CC(N)=O)NC(=O)[C@H](C)NC(=O)[C@H](C)NC2=O)C(=O)N[C@@H](CCCNC(=N)N)C(=O)N[C@@H](Cc2c[nH]cn2)C(=O)N[C@@H](CC(N)=O)C(=O)N[C@@H](Cc2c[nH]cn2)C(=O)N2CCC[C@H]2C(=O)N1)C(N)=O [rAusIA [R5A]] (H-SCCAANPACRHNHPCV-NH2; disulfide 2-15, 3-9), the IC50 is reported as > 100 µM.
In the case of CC(C)[C@H](NC(=O)[C@@H]1CSSC[C@H](NC(=O)[C@@H](N)CO)C(=O)N[C@H]2CSSC[C@H](NC(=O)[C@H](C)NC(=O)[C@@H]3CCCN3C(=O)[C@H](CC(N)=O)NC(=O)[C@H](CCCNC(=N)N)NC(=O)[C@H](C)NC2=O)C(=O)N[C@@H](C)C(=O)N[C@@H](Cc2c[nH]cn2)C(=O)N[C@@H](CC(N)=O)C(=O)N[C@@H](Cc2c[nH]cn2)C(=O)N2CCC[C@H]2C(=O)N1)C(N)=O [rAusIA [R10A]] (H-SCCARNPACAHNHPCV-NH2; disulfide 2-15, 3-9), the IC50 is reported as > 100 µM.
For CC(C)[C@H](NC(=O)[C@@H]1CSSC[C@H](NC(=O)CN)C(=O)N[C@H]2CSSC[C@H](NC(=O)[C@H](C)NC(=O)[C@@H]3CCCN3C(=O)[C@H](CC(N)=O)NC(=O)[C@H](CCCNC(=N)N)NC(=O)[C@H](C)NC2=O)C(=O)N[C@@H](CCCNC(=N)N)C(=O)N[C@@H](Cc2c[nH]cn2)C(=O)N[C@@H](CC(N)=O)C(=O)N[C@@H](Cc2c[nH]cn2)C(=O)N2CCC[C@H]2C(=O)N1)C(N)=O [rAusIA [S1G]] (H-GCCARNPACRHNHPCV-NH2; disulfide 2-15, 3-9), the “Ratio (IC50 ratio between gAusIA/rAusIA and its corresponding analogues)” value was 2.00 and the “fold decrease (loss) in potency relative to wildtype of same isomer” value was “two”.

Same assay, conditions: SEM
For CC(C)[C@H](NC(=O)[C@@H]1CSSC[C@H](NC(=O)[C@@H](N)CO)C(=O)N[C@H]2CSSC[C@H](NC(=O)[C@H](C)NC(=O)[C@@H]3CCCN3C(=O)[C@H](CC(N)=O)NC(=O)[C@H](CO)NC(=O)[C@H](C)NC2=O)C(=O)N[C@@H](CCCNC(=N)N)C(=O)N[C@@H](Cc2c[nH]cn2)C(=O)N[C@@H](CC(N)=O)C(=O)N[C@@H](Cc2c[nH]cn2)C(=O)N2CCC[C@H]2C(=O)N1)C(N)=O [rAusIA [R5S]] (H-SCCASNPACRHNHPCV-NH2; disulfide 2-15, 3-9), the IC50 was 70 ± 10 µM.
CC(C)[C@H](NC(=O)[C@@H]1CSSC[C@H](NC(=O)[C@@H](N)CO)C(=O)N[C@H]2CSSC[C@H](NC(=O)[C@H](C)NC(=O)[C@@H]3CCCN3C(=O)[C@H](CC(N)=O)NC(=O)[C@H](CCCNC(=N)N)NC2=O)C(=O)N[C@@H](CCCNC(=N)N)C(=O)N[C@@H](Cc2c[nH]cn2)C(=O)N[C@@H](CC(N)=O)C(=O)N[C@@H](Cc2c[nH]cn2)C(=O)N2CCC[C@H]2C(=O)N1)C(N)=O [rAusIA [∆4]] (H-SCCRNPACRHNHPCV-NH2; disulfide 2-14, 3-8) was tested, and the IC50 was 11 ± 0.24 µM.
C[C@@H]1NC(=O)[C@@H]2CSSC[C@H](NC(=O)[C@H](C)NC(=O)[C@@H]3CCCN3C(=O)[C@H](CC(N)=O)NC1=O)C(=O)N[C@@H](CCCNC(=N)N)C(=O)N[C@@H](Cc1c[nH]cn1)C(=O)N[C@@H](CC(N)=O)C(=O)N[C@@H](Cc1c[nH]cn1)C(=O)N1CCC[C@H]1C(=O)N[C@H](C(N)=O)CSSC[C@H](NC(=O)[C@@H](N)CO)C(=O)N2 [rAusIA [∆5 ∆16]] (H-SCCANPACRHNHPC-NH2; disulfide 2-14, 3-8) showed an IC50 of 27 ± 5.3 µM.
In the case of CC(C)[C@H](NC(=O)[C@@H]1CSSC[C@H](NC(=O)[C@@H](N)CO)C(=O)N[C@H]2CSSC[C@H](NC(=O)[C@H](C)NC(=O)[C@@H]3CCCN3C(=O)[C@H](CC(N)=O)NC(=O)[C@H](C)NC2=O)C(=O)N[C@@H](CCCNC(=N)N)C(=O)N[C@@H](Cc2c[nH]cn2)C(=O)N[C@@H](CC(N)=O)C(=O)N[C@@H](Cc2c[nH]cn2)C(=O)N2CCC[C@H]2C(=O)N1)C(N)=O [rAusIA [∆5]] (H-SCCANPACRHNHPCV-NH2; disulfide 2-14, 3-8), the IC50 is reported as 51 ± 11.6 µM.
For C[C@@H]1NC(=O)[C@@H]2CSSC[C@H](NC(=O)[C@H](C)NC(=O)[C@@H]3CCCN3C(=O)[C@H](CC(N)=O)NC(=O)[C@H](CCCNC(=N)N)NC1=O)C(=O)N[C@@H](CCCNC(=N)N)C(=O)N[C@@H](Cc1c[nH]cn1)C(=O)N[C@@H](CC(N)=O)C(=O)N[C@@H](Cc1c[nH]cn1)C(=O)N1CCC[C@H]1C(=O)N[C@H](C(N)=O)CSSC[C@H](NC(=O)[C@@H](N)CO)C(=O)N2 [rAusIA [∆16]] (H-SCCARNPACRHNHPC-NH2; disulfide 2-15, 3-9), the IC50 was 60 ± 9.9 µM.
CC[C@H](C)[C@@H]1NC(=O)[C@H](CC(N)=O)NC(=O)[C@@H]2CCCN2C(=O)[C@H](CC(N)=O)NC(=O)[C@H](CC(N)=O)NC(=O)[C@H](C(C)C)NC(=O)[C@H](CCCNC(=N)N)NC(=O)[C@@H]2CSSC[C@H](NC(=O)[C@@H](NC(=O)CNC(=O)[C@@H](N)CO)CSSC[C@@H](C(N)=O)NC1=O)C(=O)N[C@@H](CCCNC(=N)N)C(=O)N[C@@H](CC(N)=O)C(=O)N1CCC[C@H]1C(=O)N[C@@H](C)C(=O)N2 [rLsIA [S5R]] (H-SGCCRNPACRVNNPNIC-NH2; disulfide 3-17, 4-9) was tested, and the IC50 was 27 ± 5.3 µM.
CC[C@H](C)[C@@H]1NC(=O)[C@H](CC(N)=O)NC(=O)[C@@H]2CCCN2C(=O)[C@H](CC(N)=O)NC(=O)[C@H](CC(N)=O)NC(=O)[C@H](C(C)C)NC(=O)[C@H](CCCNC(=N)N)NC(=O)[C@@H]2CSSC[C@H](NC(=O)[C@@H](NC(=O)CNC(=O)[C@@H](N)CO)CSSC[C@@H](C(N)=O)NC1=O)C(=O)N[C@@H](C)C(=O)N[C@@H](CO)C(=O)N[C@@H](CC(N)=O)C(=O)N1CCC[C@H]1C(=O)N[C@@H](C)C(=O)N2 [rLsIA [∇A5]] (H-SGCCASNPACRVNNPNIC-NH2; disulfide 3-18, 4-10) showed an IC50 of 57 ± 14.7 µM.
With CC[C@H](C)[C@@H]1NC(=O)[C@H](CC(N)=O)NC(=O)[C@@H]2CCCN2C(=O)[C@H](CC(N)=O)NC(=O)[C@H](CC(N)=O)NC(=O)[C@H](C(C)C)NC(=O)[C@H](CCCNC(=N)N)NC(=O)[C@@H]2CSSC[C@H](NC(=O)[C@@H](NC(=O)CNC(=O)[C@@H](N)CO)CSSC[C@@H](C(N)=O)NC1=O)C(=O)N[C@@H](CO)C(=O)N[C@@H](CCCNC(=N)N)C(=O)N[C@@H](CC(N)=O)C(=O)N1CCC[C@H]1C(=O)N[C@@H](C)C(=O)N2 [rLsIA [∇R6]] (H-SGCCSRNPACRVNNPNIC-NH2; disulfide 3-18, 4-10) the IC50 was 66 ± 4.1 µM.
